Test results as given in publication PMC5218480 (PLoS ONE, 2017).

Test system: MV-4-11 cells
Experiment: Gene expression microarray analysis (Affymetrix PrimeView) and GSEA
Format: cell-based, human
Parameters: RFU PODN (11730768_x_at) / Fold change /veh PODN (11730768_x_at) / RFU LINC00158 (11744669_a_at) / Fold change /veh LINC00158 (11744669_a_at) / RFU DUSP10 (11751237_a_at) / Fold change /veh DUSP10 (11751237_a_at) / RFU ID3 (11757404_x_at) / Fold change /veh ID3 (11757404_x_at) / RFU PLEKHG5 (11737974_s_at) / Fold change /veh PLEKHG5 (11737974_s_at) / RFU LRRC4B (11730491_at) / Fold change /veh LRRC4B (11730491_at) / RFU GIMAP4 (11747438_a_at) / Fold change /veh GIMAP4 (11747438_a_at) / RFU KRT8 (11758183_x_at) / Fold change /veh KRT8 (11758183_x_at) / RFU CNN1 (11734310_a_at) / Fold change /veh CNN1 (11734310_a_at) / RFU VPS37D (11726825_at) / Fold change /veh VPS37D (11726825_at) / RFU C10orf10 (11716522_x_at) / Fold change /veh C10orf10 (11716522_x_at) / RFU KIR2DL2 /// KIR2DL4 /// KIR2DL5A /// KIR2DL5B /// KIR2DS1 /// KIR2DS2 /// KIR2DS3 /// KIR2DS4 /// KIR3DL3 /// KIR3DL3 /// KIR3DS1 (11738374_at) / Fold change /veh KIR2DL2 /// KIR2DL4 /// KIR2DL5A /// KIR2DL5B /// KIR2DS1 /// KIR2DS2 /// KIR2DS3 /// KIR2DS4 /// KIR3DL3 /// KIR3DL3 /// KIR3DS1 (11738374_at) / RFU C1QL1 (11718748_at) / Fold change /veh C1QL1 (11718748_at) / RFU TMPRSS4 (11747572_a_at) / Fold change /veh TMPRSS4 (11747572_a_at) / RFU HAMP (11756126_x_at) / Fold change /veh HAMP (11756126_x_at) / RFU RNFT2 (11725882_a_at) / Fold change /veh RNFT2 (11725882_a_at) / RFU NR4A2 (11747474_a_at) / Fold change /veh NR4A2 (11747474_a_at) / RFU ABCC12 (11746883_a_at) / Fold change /veh ABCC12 (11746883_a_at) / RFU TMEM136 (11760407_x_at) / Fold change /veh TMEM136 (11760407_x_at) / RFU CLDN22 /// WWC2 (11732394_at) / Fold change /veh CLDN22 /// WWC2 (11732394_at) / RFU HLA-DPB1 (11760878_x_at) / Fold change /veh HLA-DPB1 (11760878_x_at) / RFU SPINT1 (11716480_a_at) / Fold change /veh SPINT1 (11716480_a_at) / RFU GAP43 (11754022_s_at) / Fold change /veh GAP43 (11754022_s_at) / RFU A4GNT (11735810_at) / Fold change /veh A4GNT (11735810_at) / RFU PRB3 (11715151_x_at) / Fold change /veh PRB3 (11715151_x_at) / RFU TUBB4B (11761932_at) / Fold change /veh TUBB4B (11761932_at) / RFU CAPN14 (11732068_a_at) / Fold change /veh CAPN14 (11732068_a_at) / RFU TMCC2 (11721928_a_at) / Fold change /veh TMCC2 (11721928_a_at) / RFU IRGQ (11745062_a_at) / Fold change /veh IRGQ (11745062_a_at) / RFU FAM174B (11720279_a_at) / Fold change /veh FAM174B (11720279_a_at) / RFU TMPRSS4 (11748680_a_at) / Fold change /veh TMPRSS4 (11748680_a_at) / RFU FAM212B (11763350_a_at) / Fold change /veh FAM212B (11763350_a_at) / RFU PLEKHG5 (11743358_a_at) / Fold change /veh PLEKHG5 (11743358_a_at) / RFU ZSCAN30 (11745921_a_at) / Fold change /veh ZSCAN30 (11745921_a_at) / RFU CMKLR1 (11741424_a_at) / Fold change /veh CMKLR1 (11741424_a_at) / RFU LOC101060620 /// MAPK8IP1 (11723275_at) / Fold change /veh LOC101060620 /// MAPK8IP1 (11723275_at) / RFU SPTSSB (11747773_x_at) / Fold change /veh SPTSSB (11747773_x_at) / RFU PRSS12 (11739890_at) / Fold change /veh PRSS12 (11739890_at) / RFU BIN1 (11741810_x_at) / Fold change /veh BIN1 (11741810_x_at) / RFU WNT11 (11732464_a_at) / Fold change /veh WNT11 (11732464_a_at) / RFU C10orf10 (11716521_a_at) / Fold change /veh C10orf10 (11716521_a_at) / RFU C5orf56 (11738089_at) / Fold change /veh C5orf56 (11738089_at) / RFU CYB561 (11721691_x_at) / Fold change /veh CYB561 (11721691_x_at) / RFU ANKRD19P (11752326_a_at) / Fold change /veh ANKRD19P (11752326_a_at) / RFU OR2T12 /// OR2T33 /// OR2T8 (11738714_s_at) / Fold change /veh OR2T12 /// OR2T33 /// OR2T8 (11738714_s_at) / RFU VCAN (11748164_a_at) / Fold change /veh VCAN (11748164_a_at) / RFU JSRP1 (11732532_at) / Fold change /veh JSRP1 (11732532_at) / RFU KRTAP10-11 (11738290_x_at) / Fold change /veh KRTAP10-11 (11738290_x_at) / RFU MYO3A (11730013_a_at) / Fold change /veh MYO3A (11730013_a_at) / RFU EBF3 (11725865_a_at) / Fold change /veh EBF3 (11725865_a_at) / RFU CAMK2N1 (11719241_x_at) / Fold change /veh CAMK2N1 (11719241_x_at) / RFU C5orf56 (11738088_a_at) / Fold change /veh C5orf56 (11738088_a_at) / RFU OLFML3 (11715873_a_at) / Fold change /veh OLFML3 (11715873_a_at) / RFU LOC100653217 /// NTM (11731650_a_at) / Fold change /veh LOC100653217 /// NTM (11731650_a_at) / RFU MAPK11 (11762145_a_at) / Fold change /veh MAPK11 (11762145_a_at) / RFU FIZ1 (11724087_x_at) / Fold change /veh FIZ1 (11724087_x_at) / RFU OASL (11726364_x_at) / Fold change /veh OASL (11726364_x_at) / RFU SOX15 (11748057_x_at) / Fold change /veh SOX15 (11748057_x_at) / RFU CD79A (11719716_a_at) / Fold change /veh CD79A (11719716_a_at) / RFU HIST1H1D (11736915_at) / Fold change /veh HIST1H1D (11736915_at) / RFU CASKIN2 (11723855_a_at) / Fold change /veh CASKIN2 (11723855_a_at) / RFU LOC730098 (11760151_x_at) / Fold change /veh LOC730098 (11760151_x_at) / RFU OR4N2 (11742367_at) / Fold change /veh OR4N2 (11742367_at) / RFU PRRT2 (11749266_a_at) / Fold change /veh PRRT2 (11749266_a_at) / RFU SNX32 (11753110_a_at) / Fold change /veh SNX32 (11753110_a_at) / RFU CDHR5 (11726645_a_at) / Fold change /veh CDHR5 (11726645_a_at) / RFU RCAN1 (11760418_a_at) / Fold change /veh RCAN1 (11760418_a_at) / RFU FAM167A (11723789_a_at) / Fold change /veh FAM167A (11723789_a_at) / RFU FAM26E (11764081_at) / Fold change /veh FAM26E (11764081_at) / RFU ISYNA1 (11749810_s_at) / Fold change /veh ISYNA1 (11749810_s_at) / RFU ACY1 (11761880_at) / Fold change /veh ACY1 (11761880_at) / RFU 11764098_at / Fold change /veh 11764098_at / RFU SAMD14 (11745864_x_at) / Fold change /veh SAMD14 (11745864_x_at) / RFU NPB (11741838_a_at) / Fold change /veh NPB (11741838_a_at) / RFU TMPRSS6 (11731388_a_at) / Fold change /veh TMPRSS6 (11731388_a_at) / RFU KRTAP10-2 (11738614_at) / Fold change /veh KRTAP10-2 (11738614_at) / RFU ARHGAP8 /// PRR5-ARHGAP8 (11727945_x_at) / Fold change /veh ARHGAP8 /// PRR5-ARHGAP8 (11727945_x_at) / RFU KRTAP5-7 /// NADSYN1 (11734609_at) / Fold change /veh KRTAP5-7 /// NADSYN1 (11734609_at) / RFU RASL12 (11751679_a_at) / Fold change /veh RASL12 (11751679_a_at) / RFU CDKN2B (11736163_a_at) / Fold change /veh CDKN2B (11736163_a_at) / RFU PRF1 (11729649_at) / Fold change /veh PRF1 (11729649_at) / RFU, ZNF638 /// ZNF638-IT1 / Fold change vs veh, ZNF638 /// ZNF638-IT1 / RFU, PANK3 / Fold change vs veh, PANK3 / RFU, SH3YL1 / Fold change vs veh, SH3YL1 / RFU, ZEB2 / Fold change vs veh, ZEB2 / RFU, NRIP1 / Fold change vs veh, NRIP1 / RFU, PTTG1IP / Fold change vs veh, PTTG1IP / RFU, CAPN2 / Fold change vs veh, CAPN2 / RFU, MED14 / Fold change vs veh, MED14 / RFU, SNORA58 / Fold change vs veh, SNORA58 / RFU, C1orf63 / Fold change vs veh, C1orf63 / RFU, LRRFIP1 / Fold change vs veh, LRRFIP1 / RFU, NDUFAF7 / Fold change vs veh, NDUFAF7 / RFU, SLC12A2 / Fold change vs veh, SLC12A2 / RFU, IBTK / Fold change vs veh, IBTK / RFU, ESF1 / Fold change vs veh, ESF1 / Fold change vs veh, TMEM50B / RFU, TAOK1 / Fold change vs veh, TAOK1 / RFU, ACBD3 / Fold change vs veh, ACBD3 / RFU, TMA16 / Fold change vs veh, TMA16 / RFU, RWDD3 / Fold change vs veh, RWDD3 / RFU, BCAT1 / Fold change vs veh, BCAT1 / RFU, EDEM3 / Fold change vs veh, EDEM3 / RFU, TMEM33 / Fold change vs veh, TMEM33 / RFU, WDR75 / Fold change vs veh, WDR75 / RFU, AHCTF1 / Fold change vs veh, AHCTF1 / RFU, TFRC / Fold change vs veh, TFRC / RFU, ZDHHC17 / Fold change vs veh, ZDHHC17 / RFU, NOM1 / Fold change vs veh, NOM1 / RFU, ARL8B / Fold change vs veh, ARL8B / RFU, ZBTB11 / Fold change vs veh, ZBTB11 / RFU, TAMM41 / Fold change vs veh, TAMM41 / RFU, KIAA1704 /// LOC100996395 / Fold change vs veh, KIAA1704 /// LOC100996395 / RFU, ING1 / Fold change vs veh, ING1 / RFU, TRMT61B / Fold change vs veh, TRMT61B / RFU, FUBP3 / Fold change vs veh, FUBP3 / RFU, TP53 / Fold change vs veh, TP53 / RFU, TNKS2 / Fold change vs veh, TNKS2 / RFU, ZFP14 / Fold change vs veh, ZFP14 / RFU, ACTR2 / Fold change vs veh, ACTR2 / RFU, PPP3R1 / Fold change vs veh, PPP3R1 / RFU, PIK3R1 / Fold change vs veh, PIK3R1 / RFU, HNRNPA1 / Fold change vs veh, HNRNPA1 / RFU, RNF170 / Fold change vs veh, RNF170 / RFU, ZNF28 / Fold change vs veh, ZNF28 / RFU, RNGTT / Fold change vs veh, RNGTT / RFU, OGT / Fold change vs veh, OGT / RFU, BRD1 / Fold change vs veh, BRD1 / RFU, MARS / Fold change vs veh, MARS / RFU, ZNF655 / Fold change vs veh, ZNF655 / RFU, FAHD1 / Fold change vs veh, FAHD1 / RFU, BDP1 / Fold change vs veh, BDP1 / RFU, LRRCC1 / Fold change vs veh, LRRCC1 / RFU, ARID1A / Fold change vs veh, ARID1A / RFU, ZNF146 / Fold change vs veh, ZNF146 / RFU, ZNF330 / Fold change vs veh, ZNF330 / RFU, GPN3 / Fold change vs veh, GPN3 / RFU, C9orf123 / Fold change vs veh, C9orf123 / RFU, N4BP2L2 / Fold change vs veh, N4BP2L2 / RFU, ARFIP1 / Fold change vs veh, ARFIP1 / RFU, FAM179B / Fold change vs veh, FAM179B / RFU, BCL10 / Fold change vs veh, BCL10 / RFU, UHRF1BP1L / Fold change vs veh, UHRF1BP1L / RFU, BET1 / Fold change vs veh, BET1 / RFU, CNOT2 / Fold change vs veh, CNOT2 / RFU, ZNF268 / Fold change vs veh, ZNF268 / Fold change vs veh, ZNF507 / RFU, DGCR2 / Fold change vs veh, DGCR2 / RFU, WDSUB1 / Fold change vs veh, WDSUB1 / Fold change vs veh, HSP90B1 /// MIR3652 / RFU, ADSS / Fold change vs veh, ADSS / RFU, GK / Fold change vs veh, GK / RFU, ZNF148 / Fold change vs veh, ZNF148 / RFU, TAF9 / Fold change vs veh, TAF9 / RFU, SLC1A5 / Fold change vs veh, SLC1A5 / RFU, SLMO2 / Fold change vs veh, SLMO2 / RFU, ABCC4 / Fold change vs veh, ABCC4 / RFU, LOC101060439 /// RAP1B / Fold change vs veh, LOC101060439 /// RAP1B / RFU, RFX7 / Fold change vs veh, RFX7 / RFU, GTPBP10 / Fold change vs veh, GTPBP10 / RFU, CNEP1R1 / Fold change vs veh, CNEP1R1 / RFU, BIVM-ERCC5 /// ERCC5 / Fold change vs veh, BIVM-ERCC5 /// ERCC5 / RFU, ILF3 / Fold change vs veh, ILF3 / RFU 11762660_at / Fold change /veh 11762660_at / RFU VCAN (11757783_s_at) / Fold change /veh VCAN (11757783_s_at) / RFU DDX43 (11728927_at) / Fold change /veh DDX43 (11728927_at) / RFU KRT8 (11758188_x_at) / Fold change /veh KRT8 (11758188_x_at) / RFU NKD1 (11759106_at) / Fold change /veh NKD1 (11759106_at) / RFU SRD5A1 (11742802_a_at) / Fold change /veh SRD5A1 (11742802_a_at) / RFU TPSAB1 /// TPSB2 (11721975_s_at) / Fold change /veh TPSAB1 /// TPSB2 (11721975_s_at) / RFU GSTM3 (11746129_a_at) / Fold change /veh GSTM3 (11746129_a_at) / RFU IL23R (11737362_x_at) / Fold change /veh IL23R (11737362_x_at) / RFU TMEM51 (11727254_a_at) / Fold change /veh TMEM51 (11727254_a_at) / RFU PIWIL2 (11732686_x_at) / Fold change /veh PIWIL2 (11732686_x_at) / RFU ORM1 (11744905_x_at) / Fold change /veh ORM1 (11744905_x_at) / RFU CCDC152 (11743942_at) / Fold change /veh CCDC152 (11743942_at) / RFU ECM1 (11717891_a_at) / Fold change /veh ECM1 (11717891_a_at) / RFU IL23R (11748794_a_at) / Fold change /veh IL23R (11748794_a_at) / RFU TNFAIP8L3 (11732012_x_at) / Fold change /veh TNFAIP8L3 (11732012_x_at) / RFU MBOAT4 (11741988_at) / Fold change /veh MBOAT4 (11741988_at) / RFU 11764193_at / Fold change /veh 11764193_at / RFU TMEM53 (11763286_at) / Fold change /veh TMEM53 (11763286_at) / RFU MAGEB2 (11727129_at) / Fold change /veh MAGEB2 (11727129_at) / RFU TMEM200A (11744735_a_at) / Fold change /veh TMEM200A (11744735_a_at) / RFU CCDC152 (11751479_a_at) / Fold change /veh CCDC152 (11751479_a_at) / RFU FAM211A (11726209_a_at) / Fold change /veh FAM211A (11726209_a_at) / RFU RGS16 (11746705_a_at) / Fold change /veh RGS16 (11746705_a_at) / RFU VCAN (11755009_s_at) / Fold change /veh VCAN (11755009_s_at) / RFU RHOB (11743442_s_at) / Fold change /veh RHOB (11743442_s_at) / RFU RGS16 (11720943_a_at) / Fold change /veh RGS16 (11720943_a_at) / RFU RGS16 (11720944_at) / Fold change /veh RGS16 (11720944_at) / RFU, VPS4B / Fold change vs veh, VPS4B / RFU, CREB1 / Fold change vs veh, CREB1 / RFU, DNAJC13 / Fold change vs veh, DNAJC13 / RFU, GNAQ / Fold change vs veh, GNAQ / RFU, CDK5R1 / Fold change vs veh, CDK5R1 / RFU, ZRANB3 / Fold change vs veh, ZRANB3 / RFU, CUL4A / Fold change vs veh, CUL4A / RFU, CCNY / Fold change vs veh, CCNY / RFU, UFL1 / Fold change vs veh, UFL1 / RFU, COG3 / Fold change vs veh, COG3 / RFU, DIAPH2 / Fold change vs veh, DIAPH2 / RFU, SKA2 / Fold change vs veh, SKA2 / RFU, AFF3 / Fold change vs veh, AFF3 / RFU, LMF1 / Fold change vs veh, LMF1 / RFU, IPO11 / Fold change vs veh, IPO11 / RFU, DFFB / Fold change vs veh, DFFB / RFU, FOXP1 / Fold change vs veh, FOXP1 / RFU, CARD8 / Fold change vs veh, CARD8 / RFU, STRN3 / Fold change vs veh, STRN3 / RFU, ADK / Fold change vs veh, ADK / RFU, RASSF2 / Fold change vs veh, RASSF2 / RFU, WIPF1 / Fold change vs veh, WIPF1 / RFU, LARP1B / Fold change vs veh, LARP1B / RFU, RASA1 / Fold change vs veh, RASA1 / RFU, RB1 / Fold change vs veh, RB1 / RFU, PPFIA1 / Fold change vs veh, PPFIA1 / RFU, MAT2A / Fold change vs veh, MAT2A / RFU, CCT5 / Fold change vs veh, CCT5 / RFU, WDR92 / Fold change vs veh, WDR92 / RFU, CUX1 / Fold change vs veh, CUX1 / RFU, TTC7A / Fold change vs veh, TTC7A / RFU, TMEM135 / Fold change vs veh, TMEM135 / RFU, DEPTOR / Fold change vs veh, DEPTOR / RFU, CPM / Fold change vs veh, CPM / RFU, DNAJB6 / Fold change vs veh, DNAJB6 / RFU, CACNA2D3 / Fold change vs veh, CACNA2D3 / RFU, DTX4 / Fold change vs veh, DTX4 / RFU, TFCP2 / Fold change vs veh, TFCP2 / RFU, GMCL1 /// GMCL1P1 / Fold change vs veh, GMCL1 /// GMCL1P1 / RFU, AEBP2 / Fold change vs veh, AEBP2 / RFU, SNHG1 /// SNORD22 /// SNORD25 /// SNORD26 /// SNORD27 /// SNORD28 /// SNORD29 /// SNORD31 / Fold change vs veh, SNHG1 /// SNORD22 /// SNORD25 /// SNORD26 /// SNORD27 /// SNORD28 /// SNORD29 /// SNORD31 / Fold change (Aza/veh), C12orf56 (ProbeSet 11735607_a_at) / Fold change (ACY-1035/veh), C12orf56 (ProbeSet 11735607_a_at) / Fold change (Aza/veh), FGFR1OP (ProbeSet 11751329_s_at) / Fold change (ACY-1035/veh), FGFR1OP (ProbeSet 11751329_s_at) / Fold change (Aza/veh), VPS36 (ProbeSet 11739960_a_at) / Fold change (ACY-1035/veh), VPS36 (ProbeSet 11739960_a_at) / RFU SYPL1 (11715823_x_at) / Fold change /veh SYPL1 (11715823_x_at) / RFU IGFBP7 (11715501_s_at) / Fold change /veh IGFBP7 (11715501_s_at) / RFU REEP3 (11722064_at) / Fold change /veh REEP3 (11722064_at) / RFU IGLL1 (11728026_x_at) / Fold change /veh IGLL1 (11728026_x_at): dose or concentration left out as unconfirmed
Conditions: ProbeSet 11759095_at; LIST D

Nc1ncn([C@@H]2O[C@H](CO)[C@@H](O)[C@H]2O)c(=O)n1 [azacitidine]
RFU, GNAQ: 765.32 RFU
